Among the data in the supplement of paper PMC11061612 are Bliss excess values, retold here.

Test [1] deals with NCI-H2066 (Squamous Cell Lung Carcinoma). Nature of the test: Bliss excess, mean over the matrix (fraction); higher = more synergy. In short, it runs like this:
(§1)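 Cell lines grown in DMEM/F12 or RPMI with 10% FBS were plated in 1536-well plates and held 24 hours at 37°C, 5% CO2 before 72 hours of exposure to two-drug dose matrices, with DMSO typically at 0.2%. CellTiter-Glo 2.0 luminescence gave viability, which was converted to inhibition. Vehicle wells were set to 0 and blank wells to 1. Combination Emax is the second-highest inhibition in the matrix, and Bliss excess is the observed combination effect minus the expected EA + EB − EA·EB, where EA and EB are the single-agent effects.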

The subject of test [2] is NCI-H64 (Small Cell Lung Carcinoma). The description is as above. In a few lines: as §1

Take `CS(=O)(=O)CCNCc1ccc(-c2ccc3ncnc(Nc4ccc(OCc5cccc(F)c5)c(Cl)c4)c3c2)o1` [Lapatinib] + NC1(c2ccc(-c3nc4ccn5c(=O)[nH]nc5c4cc3-c3ccccc3)cc2)CCC1 [MK-2206] (first compound max 10 µM, 7x7, partner max 10 µM): the Bliss excess is 0.0521 in test [1] and 0.022 in test [2].
